Measurements as given in US8158376B2, “Bisubstrate fluorescent probe binding to protein kinases” (University of Tartu, priority 2006, dated 2012).
“And” between values parts separate entries of the source, which are not always exact repeats. Equal values may be shown once. Starred links: 1 amine or outer side, 2 acyl side, 3 side chain; linkers in the order of their positions; H or OH if unused. Non-standard residues stand in square brackets, D forms with d. Residues, ends and D or L forms follow the SMILES beside them. *: point of attachment. Adenosine(5'-uronoyl) = Nc1ncnc2c1ncn2[C@@H]1O[C@H](C(=O)*)[C@@H](O)[C@H]1O; X1 = CN(C)c1ccc2c(-c3ccc(C(=O)*)cc3C(=O)[O-])c3ccc(=[N+](C)C)cc-3oc2c1; Isoquinoline5sulfonyl = O=S(=O)(c1cccc2cnccc12)*; X2 = O=C(CCCCCNCCN[*:1])[*:2]; X3 = CN(CCCCCC(=O)[*:2])[*:1]; 4Amb = NCc1ccc(C(=O)O)cc1; Ahx = NCCCCCC(=O)O; βAla = NCCC(=O)O

Assays:
[1] = molecular target: T1, cAPK Cα (Homo sapiens, UniProt P17612); experiment: Inhibition of TAMRA-kemptide phosphorylation catalyzed by cAPK Cα (TLC, fluorescence imaging); format: biochemical; design: purchased Biaffin AG
Description: (§1) The IC50 values of the inhibitors were measured as previously described. [Viht et al., Anal. Biochem. 340 (2005) 165] The inhibitors in various concentrations were incubated at 30° C. in Hepes buffer (50 mM, pH=7.5) containing cAPK Cα (Biaffin AG; about 1 nM), TAMRA-kemptide (10, 30 or 100 μM), ATP (100 μM or 1 mM), magnesium acetate (10 mM) and bovine serum albumin ([…] 0.2 mg/mL). ATP was added last to initiate the phosphorylation reaction. At fixed time points, the reaction was stopped by 20-fold dilution with 75 mM phosphoric acid and obtained solutions were analyzed by normal phase TLC (without fluorescence indicator, eluted with 1-butanol/pyridine/acetic acid/water, 15/10/12/12 by volume). The visualization and quantification of the fluorescent spots were carried out by fluorescence imaging. Data were processed with Graphpad Prism software (version 4, GraphPad).

[2] = molecular target: MSK1 (Homo sapiens, UniProt O75582); experiment: Kinase selectivity panel, residual activity; format: biochemical; conditions: 1 μM compound, 20 μM ATP, 30° C.
Description: The assay of protein kinases was performed at 30° C. as described previously [Davies et al., Biochem. J. 351 (2000) 95; Murray et al., Biochem. J. 384 (2004) 477].

[3] = molecular target: PKBb (Homo sapiens, UniProt P31751); experiment: Kinase selectivity panel, residual activity; format: biochemical; conditions: 1 μM compound, 50 μM ATP, 30° C.
Description: (§2) The assay of protein kinases was performed at 30° C. as described previously [Davies et al., Biochem. J. 351 (2000) 95; Murray et al., Biochem. J. 384 (2004) 477]. The results of the testing are expressed as the % of residual activity of the kinase in the presence of the inhibitor at 1 micromolar concentration.

[4] = molecular target: PKBΔph (Homo sapiens, UniProt P31749); experiment: Kinase selectivity panel, residual activity; format: biochemical; conditions: 1 μM compound, 5 μM ATP, 30° C.
Description: as §2

[5] = molecular target: PRK2 (Homo sapiens, UniProt Q16513); experiment: Kinase selectivity panel, residual activity; format: biochemical
Description: as §2

[6] = molecular target: Rho-associated kinase ROCK II (Homo sapiens, UniProt O75116); experiment: Titration of ARC-TAMRA with ROCK II, PHERAstar; format: binding; conditions: 2 nM and 20 nM ARC-TAMRA, read-out: Kd of ARC-TAMRA-ROCK II complex
Description: Experiments were performed in the wells of 384-well microtiter plates and with the measurements of fluorescence anisotropy with the platereader PHERAStar according to the protocols described in the Example 7.

[7] = molecular target: T1, cAPK Cα; experiment: Titration of ARC-TAMRA with cAPK Cα, fluorescence anisotropy, LS 55 spectrometer 0.5 ml cell; format: binding; design: purchased Biaffin AG; conditions: LS 55, 0.5 ml quartz cell, read-out: Kd of ARC-TAMRA complex with cAPK Cα
Description: The change in fluorescence anisotropy was plotted against the kinase concentration [cAPK Cα]. The data were fitted to the equation: […]
The binding of the fluorescent probe ARC-TAMRA to the kinase cAPK Cα (Biaffin) was studied at 10 nM or 2 nM ARC-TAMRA concentration (excitation at 557 nm, slitwidth 10 nm; emission at 585 nm, slitwidth 10 nm, detection of fluorescence polarization).
10 nM solution of ARC-TAMRA in 500 μl of buffer (50 mM HEPES, 200 mM NaCl, 0.5 g/l BSA, 5 mM DTT, 0.05% TWEEN 20, MilliQ water; pH 7.4) was titrated with the solution of kinase cAPK Cα (Biaffin). 1-3 μl quantities of various dilutions of kinase solution were added to 500 μl of 2.0 nM or 10.0 nM solution of ARC-TAMRA, and fluorescence anisotropy was measured after each addition of the kinase solution after 10 min delay time. The change in fluorescence anisotropy was plotted against the kinase concentration [cAPK Cα]. The data were fitted to the equation: […]

[8] = molecular target: T1, cAPK Cα; experiment: Titration of ARC-TAMRA with cAPK Cα, PHERAstar plate reader, 384-well; format: binding; design: purchased Biaffin AG; conditions: 2 nM and 20 nM ARC-TAMRA, 20 μl, 30° C., read-out: Kd of ARC-TAMRA complex with cAPK Cα
Description: Titrations of 2 nM and 20 nM ARC-TAMRA solutions were performed with cAPK C[…]. 2-fold serial dilutions of the kinase were used leading to concentrations of the kinase between 100 nM and 0.05 nM and 20 μl reaction volumes on a 384-well microtiter plate. […] Optical conditions for the measurements were set as the following: 540 nm excitation and 590 nm emission (20 nm bandpass filters). To find the value of Kd, titration curves were analyzed by a scientific curve-fitting program, e.g., GraphPad Prism 4.03, with nonlinear regression, using the function below:
[formula] where A is measured anisotropy, Af—anisotropy value for free ARC-Photo, Ab—anisotropy value for bound ARC-Photo, Lt—total concentration of ARC-Photo, Rt—nominal total concentration of enzyme, k—concentration of active enzyme divided by nominal concentration of enzyme, Kd—dissociation constant for ARC-Photo complex with enzyme. […] Determination of the Inhibition Constants (Ki)

[9] = molecular target: T1, cAPK Cα; experiment: High-throughput displacement of ARC-TAMRA from cAPK Cα, PHERAstar
Description: To determine the inhibition constant (Ki), 3-fold serial dilutions of a given inhibitor are performed analogously as for titration experiments. Before the measurement of fluorescence anisotropies the plate is rotated (400 rpm) for 10 minutes at 30° C.

[10] = molecular target: T1, cAPK Cα; experiment: Inhibition of cAPK Cα-catalysed phosphorylation of TAMRA-kemptide (TLC/fluorescence imaging); format: biochemical; design: purchased Biaffin AG; conditions: single site-targeted constituents of the conjugate
Description: as §1

[11] = molecular target: T1, cAPK Cα; experiment: Competition: displacement of ARC-TAMRA from complex with cAPK Cα, fluorescence anisotropy, LS 55; format: binding; design: purchased Biaffin AG
Description: A complex was created between 10 nM of ARC-TAMRA and 10 nM of cAPK Cα in 0.500 ml of buffer (50 mM HEPES, 200 mM NaCl, 0.5 g/l BSA, 5 mM DTT, 0.05% TWEEN 20, MilliQ water; pH 7.4). Different compounds were screened for binding to cAPK Cα against fixed concentrations of ARC-TAMRA and cAPK Cα (FIG. 4). 1-3 μl quantities of various dilutions of the solution of the inhibitor were added to 500 μl solution of ARC-TAMRA complex with the kinase and fluorescence anisotropy was measured after each addition of the […] after 10 min delay time.

[12] = 100 μM ATP and 30 μM TAMRA-kemptide, read-out: IC50

PKBΔph, sequence (P31749 whole entry, stated change not applied): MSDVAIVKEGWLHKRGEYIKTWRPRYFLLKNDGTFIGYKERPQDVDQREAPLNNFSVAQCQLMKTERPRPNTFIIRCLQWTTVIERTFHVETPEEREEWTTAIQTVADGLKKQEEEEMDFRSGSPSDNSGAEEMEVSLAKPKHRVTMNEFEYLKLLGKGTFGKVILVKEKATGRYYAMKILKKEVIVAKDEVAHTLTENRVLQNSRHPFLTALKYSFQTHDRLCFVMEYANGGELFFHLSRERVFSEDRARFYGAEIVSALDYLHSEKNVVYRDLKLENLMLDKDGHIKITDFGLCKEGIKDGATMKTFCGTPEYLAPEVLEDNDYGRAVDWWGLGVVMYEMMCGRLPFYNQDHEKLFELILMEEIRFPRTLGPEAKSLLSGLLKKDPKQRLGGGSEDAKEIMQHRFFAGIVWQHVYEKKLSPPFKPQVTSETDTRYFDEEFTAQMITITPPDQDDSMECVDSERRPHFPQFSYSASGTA
PKBb, sequence (P31751 whole entry): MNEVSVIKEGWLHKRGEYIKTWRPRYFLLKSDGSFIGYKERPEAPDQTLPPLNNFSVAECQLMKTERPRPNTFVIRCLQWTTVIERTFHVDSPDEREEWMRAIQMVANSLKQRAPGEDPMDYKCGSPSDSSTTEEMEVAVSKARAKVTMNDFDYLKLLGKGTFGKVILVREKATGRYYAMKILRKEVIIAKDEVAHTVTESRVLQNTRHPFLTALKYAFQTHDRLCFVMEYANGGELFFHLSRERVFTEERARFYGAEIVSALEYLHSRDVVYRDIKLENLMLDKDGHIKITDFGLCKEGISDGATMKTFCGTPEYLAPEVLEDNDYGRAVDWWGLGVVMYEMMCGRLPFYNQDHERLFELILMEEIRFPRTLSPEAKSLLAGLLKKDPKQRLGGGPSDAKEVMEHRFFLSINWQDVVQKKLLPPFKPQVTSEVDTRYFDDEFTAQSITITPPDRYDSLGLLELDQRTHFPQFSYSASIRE
PRK2, sequence (Q16513 whole entry): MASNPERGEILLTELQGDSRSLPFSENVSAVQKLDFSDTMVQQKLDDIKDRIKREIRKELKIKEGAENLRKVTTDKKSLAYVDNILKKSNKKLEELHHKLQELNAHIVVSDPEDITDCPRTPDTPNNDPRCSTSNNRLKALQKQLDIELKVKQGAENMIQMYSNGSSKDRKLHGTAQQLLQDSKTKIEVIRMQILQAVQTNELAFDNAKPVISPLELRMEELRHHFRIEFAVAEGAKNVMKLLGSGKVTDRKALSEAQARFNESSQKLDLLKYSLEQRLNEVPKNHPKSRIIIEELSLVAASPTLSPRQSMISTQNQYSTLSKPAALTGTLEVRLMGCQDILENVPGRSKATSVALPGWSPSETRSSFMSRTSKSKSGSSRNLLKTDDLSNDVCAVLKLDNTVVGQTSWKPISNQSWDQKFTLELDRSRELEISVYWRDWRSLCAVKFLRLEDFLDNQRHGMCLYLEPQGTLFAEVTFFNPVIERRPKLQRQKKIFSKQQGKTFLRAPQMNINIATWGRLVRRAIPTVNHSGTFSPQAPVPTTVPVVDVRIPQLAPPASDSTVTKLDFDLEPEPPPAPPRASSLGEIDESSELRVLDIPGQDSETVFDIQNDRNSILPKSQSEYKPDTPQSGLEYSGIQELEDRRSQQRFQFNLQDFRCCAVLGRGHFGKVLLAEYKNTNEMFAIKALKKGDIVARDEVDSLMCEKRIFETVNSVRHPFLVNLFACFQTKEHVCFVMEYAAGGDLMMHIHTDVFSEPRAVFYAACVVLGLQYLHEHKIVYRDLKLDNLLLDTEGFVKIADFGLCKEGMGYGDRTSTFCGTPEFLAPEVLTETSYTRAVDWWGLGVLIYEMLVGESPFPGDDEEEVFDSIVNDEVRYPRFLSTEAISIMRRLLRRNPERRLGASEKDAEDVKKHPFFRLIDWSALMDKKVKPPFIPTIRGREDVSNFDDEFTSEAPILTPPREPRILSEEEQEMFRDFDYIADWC
Rho-associated kinase ROCK II, sequence (O75116 whole entry): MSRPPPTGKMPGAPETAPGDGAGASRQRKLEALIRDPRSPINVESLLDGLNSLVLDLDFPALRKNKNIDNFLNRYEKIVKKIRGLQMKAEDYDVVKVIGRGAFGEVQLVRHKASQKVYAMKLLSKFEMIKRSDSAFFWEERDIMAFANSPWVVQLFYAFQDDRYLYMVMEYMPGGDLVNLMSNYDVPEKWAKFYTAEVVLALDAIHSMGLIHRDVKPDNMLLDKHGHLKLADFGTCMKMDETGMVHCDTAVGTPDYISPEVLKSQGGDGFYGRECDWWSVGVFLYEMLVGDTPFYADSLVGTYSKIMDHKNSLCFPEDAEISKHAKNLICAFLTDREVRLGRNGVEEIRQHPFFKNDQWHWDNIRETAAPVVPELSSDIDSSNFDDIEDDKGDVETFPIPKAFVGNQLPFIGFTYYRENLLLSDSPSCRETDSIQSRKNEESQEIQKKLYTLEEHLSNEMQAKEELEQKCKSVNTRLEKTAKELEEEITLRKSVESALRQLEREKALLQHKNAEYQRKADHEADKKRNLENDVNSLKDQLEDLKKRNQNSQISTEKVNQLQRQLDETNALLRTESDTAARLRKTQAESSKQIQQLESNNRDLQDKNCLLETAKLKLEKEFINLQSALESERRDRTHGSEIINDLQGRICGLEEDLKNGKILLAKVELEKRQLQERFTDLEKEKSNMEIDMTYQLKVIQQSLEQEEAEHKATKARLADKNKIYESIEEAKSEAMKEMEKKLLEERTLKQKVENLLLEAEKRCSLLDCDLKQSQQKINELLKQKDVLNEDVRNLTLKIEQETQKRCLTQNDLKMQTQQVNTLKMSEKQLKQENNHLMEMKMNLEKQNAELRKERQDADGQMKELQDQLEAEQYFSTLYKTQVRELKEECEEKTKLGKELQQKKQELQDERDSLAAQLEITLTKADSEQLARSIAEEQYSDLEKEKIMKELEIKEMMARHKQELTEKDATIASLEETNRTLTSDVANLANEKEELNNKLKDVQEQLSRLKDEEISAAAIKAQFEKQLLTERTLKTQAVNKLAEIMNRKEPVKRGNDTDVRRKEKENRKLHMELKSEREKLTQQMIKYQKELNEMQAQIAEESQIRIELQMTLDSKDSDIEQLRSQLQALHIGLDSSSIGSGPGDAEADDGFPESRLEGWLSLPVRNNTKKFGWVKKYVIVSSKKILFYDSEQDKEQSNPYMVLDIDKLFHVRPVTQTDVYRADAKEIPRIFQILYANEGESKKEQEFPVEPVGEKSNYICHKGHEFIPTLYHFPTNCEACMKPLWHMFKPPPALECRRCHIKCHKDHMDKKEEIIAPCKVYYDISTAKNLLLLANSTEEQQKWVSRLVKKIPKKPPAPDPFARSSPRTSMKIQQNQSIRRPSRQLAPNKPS
MSK1, sequence (O75582 whole entry): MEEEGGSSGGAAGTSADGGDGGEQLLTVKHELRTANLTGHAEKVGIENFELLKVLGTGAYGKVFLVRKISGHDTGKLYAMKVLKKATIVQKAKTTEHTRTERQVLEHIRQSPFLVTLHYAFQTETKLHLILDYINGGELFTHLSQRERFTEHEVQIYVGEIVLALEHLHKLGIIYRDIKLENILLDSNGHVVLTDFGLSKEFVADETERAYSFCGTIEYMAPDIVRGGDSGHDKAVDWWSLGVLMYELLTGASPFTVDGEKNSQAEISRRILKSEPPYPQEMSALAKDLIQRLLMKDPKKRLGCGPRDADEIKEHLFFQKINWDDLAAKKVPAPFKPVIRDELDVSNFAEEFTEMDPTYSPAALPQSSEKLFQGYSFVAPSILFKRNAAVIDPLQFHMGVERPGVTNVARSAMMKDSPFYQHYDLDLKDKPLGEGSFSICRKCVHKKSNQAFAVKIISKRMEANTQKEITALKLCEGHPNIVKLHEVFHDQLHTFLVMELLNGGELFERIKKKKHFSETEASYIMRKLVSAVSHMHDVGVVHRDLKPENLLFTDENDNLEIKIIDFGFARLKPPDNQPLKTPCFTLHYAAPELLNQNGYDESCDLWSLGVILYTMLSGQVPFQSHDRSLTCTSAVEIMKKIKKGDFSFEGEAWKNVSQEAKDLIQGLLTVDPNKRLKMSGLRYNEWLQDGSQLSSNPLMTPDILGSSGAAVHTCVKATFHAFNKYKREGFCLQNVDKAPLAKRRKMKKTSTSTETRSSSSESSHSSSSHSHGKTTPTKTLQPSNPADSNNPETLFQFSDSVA

Molecule: N=C(N)NCCC[C@@H](NC(=O)[C@@H](CCCNC(=N)N)NC(=O)[C@@H](CCCNC(=N)N)NC(=O)[C@@H](CCCNC(=N)N)NC(=O)CCCCCNC(=O)[C@H]1O[C@@H](n2cnc3c(N)ncnc32)[C@H](O)[C@@H]1O)C(N)=O [Compound 4] ({Adenosine(5'-uronoyl)-Ahx}-[dR][dR][dR][dR]-NH2)
- IC50 [1, 12]: 0.33 ± 0.03 µM

Molecule: CN(CCCCCC(=O)N[C@@H](CCCNC(=N)N)C(=O)N[C@@H](CCCNC(=N)N)C(=O)N[C@@H](CCCNC(=N)N)C(=O)N[C@@H](CCCNC(=N)N)C(N)=O)C(=O)[C@H]1O[C@@H](n2cnc3c(N)ncnc32)[C@H](O)[C@@H]1O [Compound 6] ({Adenosine(5'-uronoyl)}-[X3]RRRR-NH2)
- IC50 [1, 12]: 2.6 ± 0.6 µM

Molecule: N=C(N)NCCC[C@@H](NC(=O)[C@@H](CCCNC(=N)N)NC(=O)[C@@H](CCCNC(=N)N)NC(=O)[C@@H](CCCNC(=N)N)NC(=O)[C@@H](CCCNC(=N)N)NC(=O)[C@@H](CCCNC(=N)N)NC(=O)CCCCCNCCNS(=O)(=O)c1cccc2cnccc12)C(N)=O [Compound 26, H9-(CH2)5C(O)(D-Arg)6-NH2]
- remaining activity at 1 µM [2]: ≤ 3%
- remaining activity at 1 µM [3]: ≤ 3%
- residual activity [4]: ≤ 3%
- remaining activity at 1 µM [5]: ≤ 3%

Molecule: N=C(N)NCCC[C@H](NC(=O)[C@H](CCCNC(=N)N)NC(=O)[C@H](CCCNC(=N)N)NC(=O)[C@H](CCCNC(=N)N)NC(=O)CCCCCNCCNS(=O)(=O)c1cccc2cnccc12)C(N)=O [Compound 25] (Isoquinoline5sulfonyl-[X2]RRRR-NH2)
- IC50 ([1]; second value in parentheses, condition not stated in table (method: ATP 100 μM or 1 mM), read-out: IC50 (μM), value in parentheses (converted)): 0.22 µM

Molecule: CN(C)c1ccc2c(-c3ccc(C(=O)NCCCC[C@@H](NC(=O)[C@@H](CCCNC(=N)N)NC(=O)[C@@H](CCCNC(=N)N)NC(=O)[C@@H](CCCNC(=N)N)NC(=O)[C@@H](CCCNC(=N)N)NC(=O)[C@@H](CCCNC(=N)N)NC(=O)[C@@H](CCCNC(=N)N)NC(=O)CCCCCNC(=O)[C@H]4O[C@@H](n5cnc6c(N)ncnc65)[C@H](O)[C@@H]4O)C(N)=O)cc3C(=O)[O-])c3ccc(=[N+](C)C)cc-3oc2c1 [ARC-TAMRA, AdcAhx(D-Arg)6-D-Lys(5-TAMRA)-C(O)NH2] ({Adenosine(5'-uronoyl)-Ahx}-[dR][dR][dR][dR][dR][dR][dK](X1)-NH2)
- Kd [6]: 4 nM
- Kd ([7]; 2 nM ARC-TAMRA): 1.1 nM
- Kd ([7]; 10 nM ARC-TAMRA): 1 nM and 0.94 nM
- Kd [8]: 0.4 nM
- IC50 ([1]; read-out: IC50 of inhibition towards cAPK): 0.0062 µM

Molecule: NCCNS(=O)(=O)c1cccc2cnccc12 [Compound H9, 5-isoquinolinesulfonyl ethylenediamine, reference compound]
- IC50 [1, 12]: 3.7 ± 0.3 µM

Molecule: N=C(N)NCCC[C@H](NC(=O)[C@H](CCCNC(=N)N)NC(=O)[C@H](CCCNC(=N)N)NC(=O)[C@H](CCCNC(=N)N)NC(=O)CCCCCNC(=O)[C@H]1O[C@@H](n2cnc3c(N)ncnc32)[C@H](O)[C@@H]1O)C(N)=O [Compound 2] ({Adenosine(5'-uronoyl)-Ahx}-RRRR-NH2)
- IC50 [1, 12]: 2 ± 0.3 µM

Molecule: CC(=O)N[C@H](CCCNC(=N)N)C(=O)N[C@H](CCCNC(=N)N)C(=O)N[C@H](CCCNC(=N)N)C(=O)N[C@H](CCCNC(=N)N)C(=O)N[C@H](CCCNC(=N)N)C(=O)N[C@H](CCCNC(=N)N)C(=O)N[C@H](CCCCN)C(N)=O [Compound 27, Ac-(D-Arg)6-D-Lys-NH2] (Ac-[dR][dR][dR][dR][dR][dR][dK]-NH2)
- IC50 [1, 12]: ~3000 µM

Molecule: RIIa: regulatory subunit of cAMP-dependent protein kinase RIIα, substrate protein-competitive inhibitor
- Ki ([9]; read-out: Ki (displacement of ARC-TAMRA), 2 nM ARC-TAMRA, 3 nM cAPK Cα, PHERAstar, Kd 0.4 nM used): 0.5 nM

Molecule: Nc1ncnc2c1ncn2[C@@H]1O[C@H](CO)[C@@H](O)[C@H]1O [Ado, adenosine]
- inhibitory potency [10]: submillimolar

Molecule: N=C(N)NCCC[C@H](NC(=O)[C@H](CCCNC(=N)N)NC(=O)[C@H](CCCNC(=N)N)NC(=O)[C@H](CCCNC(=N)N)NC(=O)c1ccc(CNC(=O)[C@H]2O[C@@H](n3cnc4c(N)ncnc43)[C@H](O)[C@@H]2O)cc1)C(N)=O [Compound 7] ({Adenosine(5'-uronoyl)-4Amb}-RRRR-NH2)
- IC50 [1, 12]: 23 ± 4 µM

Molecule: N=C(N)NCCC[C@H](NC(=O)[C@H](CCCNC(=N)N)NC(=O)[C@H](CCCNC(=N)N)NC(=O)[C@H](CCCNC(=N)N)NC(=O)[C@H](CCCNC(=N)N)NC(=O)[C@H](CCCNC(=N)N)NC(=O)CCCCCNC(=O)[C@H]1O[C@@H](n2cnc3c(N)ncnc32)[C@H](O)[C@@H]1O)C(N)=O [Compound 3, AdcAhx(L-Arg)6-NH2]
- IC50 ([11]; 10 nM ARC-TAMRA, 10 nM cAPK Cα): 1300 nM
- Ki ([11]; read-out: Ki (competitive binding)): 110 nM
- Ki [9]: 21 nM

Molecule: N=C(N)NCCC[C@H](NC(=O)[C@H](CCCNC(=N)N)NC(=O)[C@H](CCCNC(=N)N)NC(=O)[C@H](CCCNC(=N)N)NC(=O)CCNC(=O)[C@H](Cc1ccccc1)NC(=O)[C@H]1O[C@@H](n2cnc3c(N)ncnc32)[C@H](O)[C@@H]1O)C(N)=O [Compound 8] ({Adenosine(5'-uronoyl)}-F[βAla]RRRR-NH2)
- IC50 [1, 12]: 3.7 ± 0.3 µM

Molecule: Nc1ncnc2c1ncn2[C@@H]1O[C@H](CO)[C@@H](O)[C@H]1O [Ado, adenosine, reference compound]
- IC50 [1, 12]: 350 ± 40 µM
